The conditions of data set [1]: cited from earlier work.
For data set [2], the system named is SAP 6 binding to human platelets. To be noted: for inhibition of SAP 6 binding to human platelets: ADP-activated platelets, Alexa Fluor 488 SAP 6.
Protocol: Cells were incubated with labeled enzyme together with ADP and inhibitors respectively at 40° C., then pellets were resuspended in 100 ml Hepes-Tyrode buffer, and fluorescence measured by TECAN (Ex./Em.=488 nm/519 nm). […] T test (mean with SEM), n=3, *P<0.05, **P<0.001.
Recombinnat C. albicans SAP 6 was labeled with Alexa Fluor® 488 based on the Invitrogen Alexa Fluor® 488 protein labeling kit manual. […] To obtain the pure platelets, it needs to be further isolated as follows: (1) carefully transfer 10 ml platelets (including rich plasma) to a 15 ml tube and add 1/10 volume of ACD anticoagulant (6.25 g sodium citrate.2H2O, 3.1 g citric acid anhidrous, 3.4 g D-glucose in 250 ml H2O); (2) pellet platelets by centrifuged at 3000 rpm for 5 minutes at room temperature (note: after centrifugation, supernatant still contains significant amount of platelets and it can be collected for experiments); (3) resuspend the pellet in ˜1 ml Hepes-Tyrode buffer pH=7.4 (134 mM sodium chloride, 12 mM sodium bicarbonate, 2.9 mM potassium chloride, 0.34 mM sodium phosphate monobasic, 5 mM Hepes, 5 mM glucose, 1% BSA). When the human platelets were ready, they were incubated labeled SAP 6 with relative amount of platelets at 4° C., room temperature and 37° C. for 2 h, 1 h and 30 min respectively. The mixtures were washed by Hepes-Tyrode buffer two times at 1500 rpm for 8 min. Resuspended the pellets in Hepes-Tyrode buffer and mounted on glass slides. The glass slides were imaged by the epifluorescence microscope for simultaneous detection of Platelet/SAP 6-AlexaFluor-488 fluorescence (FIGS. 3A-B).
Purified recombination C. albicans SAP 6 was labeled by the Alexa Fluor° 488 Protein Labeling Kit from Invitrogen. […] Fifty μl purified human platelets were added into the total 100 μl reaction mixture. A gradient of ADP concentrations (0.25 μM, 0.5 μM and 1 μM) was designed to test if ADP can activate platelets during the binding assay (FIG. 4A).
For data set [3], the system named is SAP 6 binding to A549 cells. The experiment in a line: Inhibition of labeled SAP 6 binding to human lung carcinoma A549 cells (FACS). The settings on record: for ratio of positive cells in R4: 400 μM inhibitor + labeled SAP 6, cells + labeled SAP 6 alone 3.23%, cells only 0.69%; for inhibition of SAP 6 binding to A549 cells: 10° C. for 30 min, FACS. The format is cell-based. As for the experimental part: RGDS peptide or Integrilin® inhibition assay and cell viability assay. Grew human lung carcinoma A 549 cell and harvested the cells with 46×10^4 per ml. Changed the medium from complete growth medium into D-MEM/F-12 without phenol red; and transferred the aliquot volume of 0.2 ml cells into 1.5 ml sterile tubes. Added 50 μl of 2.4 mM RGDS peptide and Integrilin® into sample III and sample IV respectively, incubated all samples at 37° C. for 10 min. Then, added […] labeled Fluoro®-488 SAP 6 into Sample II, Sample III and Sample IV (Sample I is negative control, added 100 μl medium inside). Incubated the four mixtures at 10° C. for 30 min, and then centrifuged the cell cultures at 400 g at 10° C. for 5 min to remove the suspension. Washed the cells 1-2 times with 1 ml D-MEM/F-12 medium without phenol red to remove the unbound compounds. Sort the negative (non-labeling SAP 6) and positive (binding labeled SAP 6) cells by fluorescence-activated cell-sorting (FACS). […] It is often considered as a negative control.

The test system of a further data set is A549 cells. The experiment in a line: Morphology assay, rescue of apoptosis of A549 cells induced by SAP 6. Format: cell-based, human. To be noted: bright-field images after two weeks incubation, data not shown.
The target in data set [4] is integrin of A549 cells (human lung carcinoma cells).

Entries after “also recorded” stand apart in the source; their conditions may differ. Positions of bridges follow the written chain, without caps; N, C: chain ends. Non-standard residues stand in square brackets, D forms with d. Residues, ends and D or L forms follow the SMILES beside them. hArg = N=C(N)NCCCC[C@H](N)C(=O)O; Mpa = O=C(O)CCS

In the case of `Clc1ccccc1C(c1ccccc1)(c1ccccc1)n1ccnc1` [Clotrimazole], in data set [1] (in vivo), the “absorption after application to the skin” value is given as “less than 0.5%” and the “absorption from the vagina” value is recorded as 3-10%. On to `Clc1ccc(COC(Cn2ccnc2)c2ccc(Cl)cc2Cl)cc1` (stereo not shown) [Econazole], for which the “absorbed into the blood” value in data set [1] (in vivo) was “Less than 1%”. As for `OC(Cn1cncn1)(Cn1cncn1)c1ccc(F)cc1F` [Fluconazole], in data set [1] (in vivo, po), the “absorption from the GI tract” value was “almost completely absorbed”. For the molecule `N=C(N)NCCCC[C@@H]1NC(=O)CCSSC[C@@H](C(N)=O)NC(=O)[C@@H]2CCCN2C(=O)[C@H](Cc2c[nH]c3ccccc23)NC(=O)[C@H](CC(=O)O)NC(=O)CNC1=O` [Integrilin®] ([Mpa][hArg]GDWPC-NH2; disulfide 1-7), in data set [2], the “inhibition of SAP 6 binding to human platelets” value is recorded as “dose-dependent inhibition”. Besides, in data set [3], the “ratio of positive cells in R4” value worked out at 2.42% and the “inhibition of SAP 6 binding to A549 cells” value (“inhibition … to A549 cells” for short) is listed as “can inhibit; also recorded: significantly inhibit”. For `CCC(C)n1ncn(-c2ccc(N3CCN(c4ccc(OCC5COC(Cn6cncn6)(c6ccc(Cl)cc6Cl)O5)cc4)CC3)cc2)c1=O` (stereo not shown) [Itraconazole], in data set [1] (in vivo, po), the “absorption in the fasting state relative to drug taken with food” value was 30%. With `CC(=O)N1CCN(c2ccc(OCC3COC(Cn4ccnc4)(c4ccc(Cl)cc4Cl)O3)cc2)CC1` (stereo not shown) [Ketoconazole], the peak plasma concentrations in data set [1] (oral doses 200-800 mg) was 4 to 20 µg/mL.

For Arg-Gly-Asp-Ser (RGDS), the “inhibition of SAP 6 binding to human platelets” value in data set [2] is on record as “dose-dependent inhibition”. In data set [2] (FIG. 4B), the “inhibition of SAP 6 binding to human platelets, compared between inhibitors” value is listed as “much stronger than that of Integrilin®”. In data set [3], the “ratio of positive cells in R4” value is 1.68% and the “inhibition … to A549 cells” value is on record as “much more inhibition than that of Integrilin®; also recorded: significantly inhibit”. Moreover, in the data set on A549 cells, the “rescue of apoptosis of A549 cells induced by SAP 6” value is “can rescue the apoptosis”. For the molecule “Integrilin® (C35H49N11O9S2, molecular weight 831.96) (peptide)”, the ratio of positive cells in R4 in data set [4] was 2.42%.

For “SDGRG: reverse peptide with no competition for integrin binding, negative control”, the “inhibition … to A549 cells” value in data set [3] is listed as “significantly less inhibition”; in data set [3] (listed as RDGRG) it was “less inhibitory”.

As to “secreted aspartic protease 6 (SAP 6) from Candida albicans, recombinant (from UniProt P43095) (enzyme)”, the ratio of positive cells in R4 in data set [4] is 3.23%. Same read-out and setting: the figure for RGDS [RGDS peptide (Arg-Gly-Asp-Ser)] is 1.68%.

These data come from US20110183891A1 (priority 2009, published 2011).
